According to ChEMBL document CHEMBL1201862, “PubChem BioAssay data set” (2004):
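In this assay, cells in 96-well plates receive the compound at five concentrations for 48 hours. Endpoints are linearly interpolated between the surrounding concentrations. At the GI50, growth is halved.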 Calls of active or inactive are those of the source. Cut-off read from the data, not from the text of the source: active = GI50 up to about 1.1 µM and inactive = higher.

Tests used:
Assay in all cases: NCI tumour cell line growth inhibition, 48 h
A498 = tested on: A498
IGROV-1 = tested on: IGROV-1
SK-OV-3 = tested on: SK-OV-3
HCT-116 = tested on: HCT-116
A549 = tested on: A549
CCRF-CEM = tested on: CCRF-CEM
U-251 = tested on: U-251
SK-MEL-28 = tested on: SK-MEL-28
Malme-3M = tested on: Malme-3M
MOLT-4 = tested on: MOLT-4
MDA-N = tested on: MDA-N
SK-MEL-2 = tested on: SK-MEL-2
NCI-H522 = tested on: NCI-H522
HCC 2998 = tested on: HCC 2998
786-0 = tested on: 786-0
MDA-MB-231 = tested on: MDA-MB-231
HCT-15 = tested on: HCT-15
M14 = tested on: M14
K562 = tested on: K562
RPMI-8226 = tested on: RPMI-8226

SMILES	GI50 (A498)	GI50 (IGROV-1)	GI50 (SK-OV-3)	GI50 (HCT-116)	GI50 (A549)	GI50 (CCRF-CEM)	GI50 (U-251)	GI50 (SK-MEL-28)	GI50 (Malme-3M)	GI50 (MOLT-4)	GI50 (MDA-N)	GI50 (SK-MEL-2)	GI50 (NCI-H522)	GI50 (HCC 2998)	GI50 (786-0)	GI50 (MDA-MB-231)	GI50 (HCT-15)	GI50 (M14)	GI50 (K562)	GI50 (RPMI-8226)
Nc1nc(Cl)c(N)c(NCC2(CO)CC(CCCc3ccccc3)C2)n1 (configuration not stated)	15.5 µM (inactive)	21.6 µM (inactive)	> 100 µM (inactive)	0.495 µM (active)	15.5 µM (inactive)	0.0451 µM (active)	34.3 µM (inactive)	47.1 µM (inactive)	1.26 µM (inactive)	5.07 µM (inactive)	19.3 µM (inactive)	0.137 µM (active)	0.121 µM (active)	38.2 µM (inactive)	22.7 µM (inactive)	41.5 µM (inactive)	51.5 µM	22 µM (inactive)	10.8 µM (inactive)	–
COC1(CC[C@@H](C)COC2OC(CO)C(O)C(O)C2O)OC2C[C@H]3[C@@H]4CC[C@H]5C[C@@H](OC6OC(CO)C(OC7OC(CO)C(O)C(O)C7O)C(O)C6OC6OC(C)C(O)C(O)C6O)[C@H](O)C[C@]5(C)[C@H]4CC[C@]3(C)C2[C@@H]1C (some centres not stated)	1.81 µM (inactive)	1.74 µM (inactive)	1.87 µM (inactive)	1.86 µM (inactive)	1.92 µM (inactive)	1.88 µM (inactive)	1.87 µM (inactive)	1.88 µM (inactive)	1.85 µM (inactive)	2.58 µM (inactive)	2.19 µM (inactive)	2.12 µM (inactive)	2.2 µM (inactive)	1.7 µM (inactive)	2.02 µM (inactive)	1.95 µM (inactive)	–	1.84 µM (inactive)	2.37 µM (inactive)	2 µM (inactive)
O=C(/C=C/c1ccsc1)c1cccs1	> 100 µM (inactive)	53.2 µM (inactive)	39.1 µM (inactive)	15.6 µM (inactive)	33 µM (inactive)	18.5 µM (inactive)	20.5 µM (inactive)	20.9 µM (inactive)	50 µM (inactive)	> 10 µM (inactive)	35 µM (inactive)	–	18.7 µM (inactive)	19.7 µM (inactive)	49.3 µM (inactive)	36 µM (inactive)	18.7 µM	22.8 µM (inactive)	28.2 µM (inactive)	–
CSc1nncc(-c2cc3c(c(SC)n2)CCCC3)n1	> 100 µM (inactive)	–	40.1 µM (inactive)	> 100 µM (inactive)	> 100 µM (inactive)	> 100 µM (inactive)	> 100 µM (inactive)	> 100 µM (inactive)	–	> 100 µM (inactive)	> 100 µM (inactive)	> 100 µM (inactive)	53.7 µM (inactive)	> 100 µM (inactive)	> 100 µM (inactive)	> 100 µM (inactive)	> 100 µM	> 100 µM (inactive)	> 100 µM (inactive)	> 100 µM (inactive)
Clc1ccccc1NN(Cc1ccncc1)c1ccccc1Cl	19.1 µM (inactive)	14.6 µM (inactive)	28.1 µM (inactive)	13 µM (inactive)	12.5 µM (inactive)	–	13.5 µM (inactive)	20.3 µM (inactive)	17.7 µM (inactive)	15.5 µM (inactive)	13.5 µM (inactive)	14.4 µM (inactive)	12.1 µM (inactive)	–	13.7 µM (inactive)	13.6 µM (inactive)	16.3 µM	17.7 µM (inactive)	10.4 µM (inactive)	10.8 µM (inactive)
C=CC[C@@H]1C(=O)[C@@]2(O[Si](C(C)C)(C(C)C)C(C)C)CC[C@@H]1C[C@H]2NC(=O)OCC(Cl)(Cl)Cl	> 100 µM (inactive)	–	> 100 µM (inactive)	27.9 µM (inactive)	> 100 µM (inactive)	60 µM (inactive)	> 100 µM (inactive)	> 100 µM (inactive)	–	> 100 µM (inactive)	77.1 µM (inactive)	60 µM (inactive)	< 0.01 µM (active)	43.2 µM (inactive)	77.1 µM (inactive)	> 10 µM (inactive)	91.6 µM	> 100 µM (inactive)	61.8 µM (inactive)	–
CC(C)(C)c1cc(C2=NN(c3ccccc3)C(c3ccccc3)C2)cc(C(C)(C)C)c1O (configuration not stated)	> 100 µM (inactive)	> 100 µM (inactive)	> 100 µM (inactive)	> 100 µM (inactive)	> 100 µM (inactive)	19.1 µM (inactive)	> 100 µM (inactive)	> 100 µM (inactive)	> 100 µM (inactive)	> 100 µM (inactive)	> 100 µM (inactive)	> 100 µM (inactive)	> 100 µM (inactive)	–	> 100 µM (inactive)	> 100 µM (inactive)	> 100 µM	> 100 µM (inactive)	> 100 µM (inactive)	> 100 µM (inactive)
Nc1nc2c(c(-c3cccc(Cl)c3)n1)COC/C2=C\c1cccc(Cl)c1	> 100 µM (inactive)	94.2 µM (inactive)	> 100 µM (inactive)	> 100 µM (inactive)	–	> 100 µM (inactive)	> 100 µM (inactive)	> 100 µM (inactive)	37.9 µM (inactive)	> 100 µM (inactive)	> 100 µM (inactive)	> 100 µM (inactive)	> 100 µM (inactive)	56.8 µM (inactive)	15.6 µM (inactive)	52.7 µM (inactive)	> 100 µM	> 100 µM (inactive)	> 100 µM (inactive)	> 100 µM (inactive)
